Publication doi:10.1101/2025.07.20.665728 (bioRxiv, 2025)
Several values for one entry are separate records, joined by “and”; a condition that tells them apart may be missing. Equal values may be shown once. Read-outs that look alike come from different tables or passages of the source.

Key:
[1] = tested on: C1R.MR1 cells; assay: Intracellular total folded MR1 by flow cytometry (8F2.F9); format: cell-based; conditions: C1R.MR1, 100 μM, 16 h
[2] = tested on: MAIT cells in human PBMC; assay: Primary MAIT activation (CD69) in PBMCs; format: cell-based; conditions: 16 h, co-incubation with 5-OP-RU
[3] = molecular target: T1, hMR1^R9H (Homo sapiens, UniProt Q95460, R31H); assay: In vitro refolding of MR1 R9H mutant with ligand; format: binding
T1 construct: plasmids encoding for the extracellular domains of MR1, β2m, and the AF-7 TCRα and TCRβ chains; made in house; host or cells: Escherichia coli BL21(DE3), inclusion bodies
Text: (§1) We then tested the effect of the RF catabolites on the expression of two mutant versions of MR1 termed MR1^R9H ([Howson et al., 2020]) and MR1^K43A ([Reantragoon et al., 2013]). First, we tested the MR1^R9H mutant ([Howson et al., 2020]) which represents a rare, natural human polymorph. […] When C1R. […] Next, we tested sought to understand how the previously characterised Lys43A mutation affects ligand binding. […] While this is in line with the ability of these ligands to bind MR1, the reason for MR1^K43A cell surface accumulation is less clear. The most likely explanation is that these ligands bind ER-resident MR1^K43A, in line with our data using wild-type MR1; however, because the K43A mutation results in spontaneous MR1 surface egress, the presence of these stabilising ligands promotes enhanced trafficking and/or retention at the cell surface. We cannot rule out however that the ligands may also bind directly to surface MR1^K43A and slow down the recycling from cell surface.
Escherichia coli BL21(DE3) cells were transformed with plasmids encoding for the extracellular domains of MR1, β2m, and the AF-7 TCRα and TCRβ chains ([Kjer-Nielsen et al., 2012]; [Patel et al., 2013]; [Wang et al., 2022a]). The proteins were then expressed, and the inclusion bodies were purified, cleaned, and used for refolding. […]

[4] = tested on: C1R.MR1^K43A cells; assay: Cell surface MR1 K43A quantification, C1R.MR1^K43A; format: cell-based
Text: as §1
The level of MR1 expressed on the cell surface was measured after the exposure to the investigated ligands as previously described ([Awad et al., 2020a]; [Wang et al., 2022a]). C1R antigen presenting B lymphocytes overexpressing MR1*01 (C1R.MR1), MR1^K43A mutant (C1R.MR1^K43A), MR1^R9H mutant (C1R.MR1^R9H) or HLA-A*02:01 (C1R-A2), in addition to the monocytic THP-1-MR1 cells, were used in this study. 2 x 10^5 cells were incubated with RF catabolites for 3 or 16 h at 37° C and 5% CO2 in 200 μl folate-free RPMI 1640 medium from Gibco (Cat. No. 11875-093) fortified with 10% fetal bovine serum (FBS), sodium pyruvate (1 mmol/L), Hepes buffer (15 mmol/L), pH 7.2 to 7.5, 2% penicillin (100 U/ml), streptomycin ([…]), glutamax (2 mmol/L), nonessential amino acids (0.1 mmol/L) (all from ThermoFisher, Life Technologies), and 2-mercaptoethanol ([…], Sigma) (RF-10). After incubation, the cells were first stained with Zombie Aqua Fixable Viability Kit from BioLegend (Cat. No. 423102) and then incubated with biotinylated 8F2F9 αMR1 antibody for 30 minutes on ice. The unbound antibody was then washed off with 2% fetal bovine serum/PBS. The cells were finally incubated with PE-conjugated streptavidin (BioLegend, 30 μg/ml) and then washed with 2% fetal bovine serum/PBS. The PE fluorescence intensity reflects the surface MR1 level. The data was acquired with an LSRFortessa X-20 (BD Biosciences) and Diva software (BD Biosciences) and analyzed using FlowJo software (BD Biosciences).
Figure S2. Responses of different APCs to RF catabolites. […] C1R cells expressing (b) wild-type level of MR1*01, or overexpressing (c) HLA-A*02:01 or (d) MR1.K43A mutant were incubated for the indicated periods with titrated quantities of ligand followed by flow cytometry. The C1R and C1R.A2 cells were stained with biotinylated 8F2F9 and W6/32, respectively; followed by PE-labelled streptavidin. In all experiments, the MR1 and HLA-A*02:01 surface expression are depicted as a fold change from basal surface expression upon incubation with the vehicle (1 mM NaOH). Each column represents the average of at least three independent experiments performed in duplicate with standard error (SEM) represented by error bars. One-way ANOVA statistical analysis was performed for all samples followed by Dunnett multiple comparison test using NaOH as a control (ns; not significant, * p <0.05, **p < 0.01, ***p < 0.001, ****p < 0.0001).

[5] = tested on: soluble WT MR1; assay: Fluorescence-based thermal shift assay of MR1-ligand complexes; format: binding, human; conditions: MR1 refolded with the ligand, Sypro Orange, three independent experiments
[6] = molecular target: T2, hMR1 protein (Homo sapiens, UniProt Q95460); assay: Fluorescence polarization (FP)-based cell-free MR1 binding assay (competition with JYM20)
T2 construct: plasmids encoding for the extracellular domains of MR1, β2m, and the AF-7 TCRα and TCRβ chains; made in house

[7] = competition with 10 nM JYM20 for 100 nM empty hMR1, 37°C, read-out: IC50

| refolding with hMR1^R9H in solution [3] | IC50 [6, 7] | SMILES | total level of folded MR1 (intracellular staining with 8F2.F9) [1] | competition with 5-OP-RU for MAIT activation (CD69) [2] | MR1^K43A at the cell surface ([4]; 3 h) | MR1^K43A at the cell surface ([4]; 16 h) | Tm50 (half maximum melting temperature), Mean ± SD ([5]; listed as MR1-lumichrome) | Tm50 (half maximum melting temperature), Mean ± SD ([5]; listed as MR1-lumiflavin) | IC50 ([6]; IC50, competition with 10 nM JYM20 for 100 nM empty hMR1, 37°C) [µM] | Tm50 (half maximum melting temperature), Mean ± SD ([5]; listed as MR1-alloxazine) |
| --- | --- | --- | --- | --- | --- | --- | --- | --- | --- | --- |
| did not refold | 12.5 µM | Cc1cc2nc3[nH]c(=O)[nH]c(=O)c3nc2cc1C [Lumichrome, 7,8-dimethylalloxazine] | also increased the total level of folded MR1 | most potent competitor | increased | MR1 upregulation continues | 49.9–52.0 °C | – | – | – |
| – | – | Cc1cc2nc3c(=O)[nH]c(=O)nc-3n(C)c2cc1C [Lumiflavin] | – | – | increased | – | – | 49.9–52.0 °C | 22.8 | – |
| – | ~182 µM and 182 µM | Cc1cc2nc3c(=O)[nH]c(=O)nc-3n(C[C@H](O)[C@H](O)[C@H](O)CO)c2cc1C [RF, Riboflavin] | – | potent concentration-dependent competition | – | MR1 upregulation continues | – | – | – | – |
| – | 13.4 µM | O=c1nc2[nH]c3ccccc3nc-2c(=O)[nH]1 [Alloxazine, alloxazine] | also increased the total level of folded MR1 | – | increased | – | – | – | – | 49.9–52.0 °C |
